From ChEMBL document CHEMBL1201862, “PubChem BioAssay data set” (2004)
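Following 48 hours of exposure in 96-well plates, responses at five concentrations were used to interpolate endpoints linearly. Here, GI50 denotes the concentration required for 50% inhibition of growth.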 Activity calls are given as the source filed them. Cut-off read from the data, not from the text of the source: active = GI50 up to about 1.1 µM and inactive = higher.

Columns and labels:
Assay in all cases: inhibition of tumour cell growth, NCI panel, 48 h
[1] = tested on: 786-0
[2] = tested on: A498
[3] = tested on: HCT-15
[4] = tested on: HL-60
[5] = tested on: M14
[6] = tested on: NCI-H226
[7] = tested on: OVCAR-5
[8] = tested on: PC-3
[9] = tested on: RXF 393
[10] = tested on: SF-268
[11] = tested on: SK-MEL-2
[12] = tested on: SK-MEL-5
[13] = tested on: SK-OV-3
[14] = tested on: SNB-19
[15] = tested on: SR
[16] = tested on: SW-620
[17] = tested on: TK-10
[18] = tested on: UO-31
[19] = tested on: SF-539
[20] = tested on: HOP-92

SMILES	GI50 [1]	GI50 [2]	GI50 [3]	GI50 [4]	GI50 [5]	GI50 [6]	GI50 [7]	GI50 [8]	GI50 [9]	GI50 [10]	GI50 [11]	GI50 [12]	GI50 [13]	GI50 [14]	GI50 [15]	GI50 [16]	GI50 [17]	GI50 [18]	GI50 [19]	GI50 [20]
Cc1cc(C(=O)CCCCOc2ccc(C3=NCCO3)cc2)c(C)n1C	38.6 µM (inactive)	34.6 µM (inactive)	38.6 µM	0.0883 µM (active)	37.8 µM (inactive)	29.3 µM (inactive)	71.6 µM (inactive)	19.9 µM (inactive)	13.2 µM (inactive)	52.1 µM (inactive)	28.7 µM (inactive)	15.7 µM (inactive)	49.7 µM (inactive)	25.1 µM (inactive)	29.4 µM (inactive)	33.2 µM (inactive)	44.9 µM (inactive)	39.9 µM (inactive)	–	–
CCOC(=O)C12C3CCC1C2C(=O)C3 (stereo unspecified)	> 100 µM (inactive)	–	> 100 µM	–	> 100 µM (inactive)	> 100 µM (inactive)	> 100 µM (inactive)	> 100 µM (inactive)	> 100 µM (inactive)	> 100 µM (inactive)	> 100 µM (inactive)	> 100 µM (inactive)	> 100 µM (inactive)	> 100 µM (inactive)	> 100 µM (inactive)	> 100 µM (inactive)	> 100 µM (inactive)	> 100 µM (inactive)	> 100 µM (inactive)	–
N#CC12C(=O)NC(=O)C1(C#N)C1C=CC2CC1 (stereo unspecified)	> 100 µM (inactive)	–	> 100 µM	> 100 µM (inactive)	> 100 µM (inactive)	> 100 µM (inactive)	> 100 µM (inactive)	> 100 µM (inactive)	> 100 µM (inactive)	> 100 µM (inactive)	–	> 100 µM (inactive)	> 100 µM (inactive)	> 100 µM (inactive)	> 100 µM (inactive)	> 100 µM (inactive)	> 100 µM (inactive)	> 100 µM (inactive)	> 100 µM (inactive)	–
O=C1N=C2SC=C(NC(=S)Nc3ccccc3)N2NC12c1ccccc1-c1ccccc12	> 10 µM (inactive)	–	> 10 µM	> 10 µM (inactive)	> 10 µM (inactive)	> 10 µM (inactive)	> 10 µM (inactive)	> 10 µM (inactive)	> 10 µM (inactive)	> 10 µM (inactive)	–	> 10 µM (inactive)	> 10 µM (inactive)	> 10 µM (inactive)	> 10 µM (inactive)	> 10 µM (inactive)	> 10 µM (inactive)	8.67 µM (inactive)	> 10 µM (inactive)	> 10 µM (inactive)
COC(=O)/C=C1/CCC(C)(C(=O)NS(=O)(=O)c2ccc(C)cc2)C1(C)C (stereo unspecified)	> 100 µM (inactive)	> 100 µM (inactive)	> 100 µM	> 100 µM (inactive)	> 100 µM (inactive)	> 100 µM (inactive)	> 100 µM (inactive)	> 100 µM (inactive)	> 100 µM (inactive)	> 100 µM (inactive)	> 100 µM (inactive)	> 100 µM (inactive)	> 100 µM (inactive)	> 100 µM (inactive)	–	> 100 µM (inactive)	> 100 µM (inactive)	> 100 µM (inactive)	> 100 µM (inactive)	> 100 µM (inactive)
CSc1c(C(=O)Nc2ccccc2)c(N)n(N)c(=O)c1C#N	> 100 µM (inactive)	30.5 µM (inactive)	> 100 µM	> 100 µM (inactive)	> 100 µM (inactive)	> 100 µM (inactive)	> 100 µM (inactive)	> 100 µM (inactive)	> 100 µM (inactive)	> 100 µM (inactive)	> 100 µM (inactive)	> 100 µM (inactive)	> 100 µM (inactive)	> 100 µM (inactive)	> 100 µM (inactive)	> 100 µM (inactive)	> 100 µM (inactive)	> 100 µM (inactive)	> 100 µM (inactive)	–
CC(C(N)C(=O)NC(C(=O)O)C1OC(n2ccc(=O)[nH]c2=O)C(O)C1O)C(O)c1ccc(O)cn1 (stereo unspecified)	> 100 µM (inactive)	–	> 100 µM	> 100 µM (inactive)	> 100 µM (inactive)	–	> 100 µM (inactive)	> 100 µM (inactive)	–	> 100 µM (inactive)	> 100 µM (inactive)	> 100 µM (inactive)	–	> 100 µM (inactive)	> 100 µM (inactive)	> 100 µM (inactive)	> 100 µM (inactive)	> 100 µM (inactive)	> 100 µM (inactive)	> 100 µM (inactive)
Cn1c(=O)[nH]c2sc3c(c2c1=N)CCCC3	> 75 µM (inactive)	> 75 µM (inactive)	> 75 µM	32.7 µM (inactive)	–	> 75 µM (inactive)	> 75 µM (inactive)	> 75 µM (inactive)	> 75 µM (inactive)	> 75 µM (inactive)	0.199 µM (active)	> 75 µM (inactive)	–	> 75 µM (inactive)	> 75 µM (inactive)	> 75 µM (inactive)	> 75 µM (inactive)	> 75 µM (inactive)	–	–
N#CC(/N=N/c1ccccc1C(=O)O)C(N)=O (stereo unspecified)	> 100 µM (inactive)	–	68.9 µM	> 100 µM (inactive)	> 100 µM (inactive)	82.8 µM (inactive)	> 100 µM (inactive)	> 100 µM (inactive)	> 100 µM (inactive)	–	> 100 µM (inactive)	> 100 µM (inactive)	–	> 100 µM (inactive)	> 100 µM (inactive)	> 100 µM (inactive)	> 100 µM (inactive)	> 100 µM (inactive)	–	–
COC(=O)Cc1ccc2c(cnn2-c2ccccc2)c1OC	> 10 µM (inactive)	> 10 µM (inactive)	> 10 µM	> 10 µM (inactive)	> 10 µM (inactive)	> 10 µM (inactive)	> 10 µM (inactive)	> 10 µM (inactive)	> 10 µM (inactive)	> 10 µM (inactive)	> 10 µM (inactive)	> 10 µM (inactive)	> 10 µM (inactive)	> 10 µM (inactive)	> 10 µM (inactive)	> 10 µM (inactive)	> 10 µM (inactive)	–	> 10 µM (inactive)	–
CC(=O)Oc1ccc2c(c1)[nH]c1c3ccc(OC(C)=O)cc3oc(=O)c21	48 µM (inactive)	–	37 µM	–	30.5 µM (inactive)	21.8 µM (inactive)	> 100 µM (inactive)	24.5 µM (inactive)	26.7 µM (inactive)	26.9 µM (inactive)	–	15.3 µM (inactive)	26 µM (inactive)	23.9 µM (inactive)	22.8 µM (inactive)	25 µM (inactive)	49.9 µM (inactive)	27.8 µM (inactive)	29.9 µM (inactive)	61.1 µM (inactive)
Cc1cc(OP2(=O)NCc3ncccc3O2)ccc1Cl (stereo unspecified)	> 100 µM (inactive)	> 100 µM (inactive)	> 100 µM	–	> 100 µM (inactive)	> 100 µM (inactive)	> 100 µM (inactive)	> 100 µM (inactive)	> 100 µM (inactive)	–	> 100 µM (inactive)	> 100 µM (inactive)	–	> 100 µM (inactive)	> 100 µM (inactive)	> 100 µM (inactive)	–	> 100 µM (inactive)	> 100 µM (inactive)	> 100 µM (inactive)
COc1cc(/C=C2\N=C(c3ccccc3)N(c3nc4cc(C)c(C)cc4s3)C2=O)cc(OC)c1OC	27.6 µM (inactive)	–	30.3 µM	17.8 µM (inactive)	33.3 µM (inactive)	–	27.2 µM (inactive)	23.9 µM (inactive)	19.3 µM (inactive)	23 µM (inactive)	32 µM (inactive)	21.2 µM (inactive)	27.7 µM (inactive)	36 µM (inactive)	18.4 µM (inactive)	29.4 µM (inactive)	60 µM (inactive)	24.7 µM (inactive)	21.7 µM (inactive)	13 µM (inactive)
Clc1ccc(NCc2nnc(CCCCCCCCc3nnc(CNc4ccc(Cl)cc4)o3)o2)cc1	> 100 µM (inactive)	> 100 µM (inactive)	> 100 µM	–	> 100 µM (inactive)	–	> 100 µM (inactive)	> 100 µM (inactive)	> 100 µM (inactive)	> 100 µM (inactive)	> 100 µM (inactive)	> 100 µM (inactive)	> 100 µM (inactive)	> 100 µM (inactive)	> 100 µM (inactive)	–	> 100 µM (inactive)	> 100 µM (inactive)	–	> 100 µM (inactive)
CCOC(=O)Cc1csc(N/C=C2/C(=O)Oc3ccccc3C2=O)n1	26.4 µM (inactive)	–	24.2 µM	0.083 µM (active)	23.8 µM (inactive)	22.6 µM (inactive)	37.4 µM (inactive)	32.2 µM (inactive)	14.7 µM (inactive)	24.8 µM (inactive)	13.6 µM (inactive)	17.3 µM (inactive)	35.4 µM (inactive)	24.2 µM (inactive)	14.3 µM (inactive)	21.6 µM (inactive)	24.7 µM (inactive)	14.9 µM (inactive)	16.9 µM (inactive)	11.7 µM (inactive)
O=C1C(O)=C(CCCCCCCCC2CCCCC2)C(=O)c2ccccc21 [MENOCTONE]	6.01 µM (inactive)	–	4.69 µM	1 µM (active)	10.8 µM (inactive)	–	17 µM (inactive)	5.09 µM (inactive)	–	7.03 µM (inactive)	11.8 µM (inactive)	10.4 µM (inactive)	16.1 µM (inactive)	9.86 µM (inactive)	6.4 µM (inactive)	4.23 µM (inactive)	14.7 µM (inactive)	8.34 µM (inactive)	7.53 µM (inactive)	10 µM (inactive)
